Test results as given in patent publication US8642609B2, “Modulators of ATP-binding cassette transporters” (Vertex Pharmaceuticals Incorporated, priority 2003, dated 2014).

Target: T1, ΔF508-CFTR (Homo sapiens, UniProt P13569, DEL508-508)
T1 construct: expressed in transfected cells
Assay: Membrane potential optical assay (FRET/VIPR), identification of correction compounds
Type: cell-based
Conditions: for Emax / % Efficacy: relative efficacy
Summary of the method: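 NIH3T3 cells stably expressing ΔF508-CFTR incubated 16 hrs at 37° C in serum-free medium with test compound; 27° C incubation as positive control. CFTR then activated with 10 μM forskolin plus 20 μM genistein in Cl^−-free medium; depolarization read by DiSBAC2(3)/CC2-DMPE FRET on VIPR.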

T1 sequence (P13569 with tags, fused parts or gaps DEL508-508): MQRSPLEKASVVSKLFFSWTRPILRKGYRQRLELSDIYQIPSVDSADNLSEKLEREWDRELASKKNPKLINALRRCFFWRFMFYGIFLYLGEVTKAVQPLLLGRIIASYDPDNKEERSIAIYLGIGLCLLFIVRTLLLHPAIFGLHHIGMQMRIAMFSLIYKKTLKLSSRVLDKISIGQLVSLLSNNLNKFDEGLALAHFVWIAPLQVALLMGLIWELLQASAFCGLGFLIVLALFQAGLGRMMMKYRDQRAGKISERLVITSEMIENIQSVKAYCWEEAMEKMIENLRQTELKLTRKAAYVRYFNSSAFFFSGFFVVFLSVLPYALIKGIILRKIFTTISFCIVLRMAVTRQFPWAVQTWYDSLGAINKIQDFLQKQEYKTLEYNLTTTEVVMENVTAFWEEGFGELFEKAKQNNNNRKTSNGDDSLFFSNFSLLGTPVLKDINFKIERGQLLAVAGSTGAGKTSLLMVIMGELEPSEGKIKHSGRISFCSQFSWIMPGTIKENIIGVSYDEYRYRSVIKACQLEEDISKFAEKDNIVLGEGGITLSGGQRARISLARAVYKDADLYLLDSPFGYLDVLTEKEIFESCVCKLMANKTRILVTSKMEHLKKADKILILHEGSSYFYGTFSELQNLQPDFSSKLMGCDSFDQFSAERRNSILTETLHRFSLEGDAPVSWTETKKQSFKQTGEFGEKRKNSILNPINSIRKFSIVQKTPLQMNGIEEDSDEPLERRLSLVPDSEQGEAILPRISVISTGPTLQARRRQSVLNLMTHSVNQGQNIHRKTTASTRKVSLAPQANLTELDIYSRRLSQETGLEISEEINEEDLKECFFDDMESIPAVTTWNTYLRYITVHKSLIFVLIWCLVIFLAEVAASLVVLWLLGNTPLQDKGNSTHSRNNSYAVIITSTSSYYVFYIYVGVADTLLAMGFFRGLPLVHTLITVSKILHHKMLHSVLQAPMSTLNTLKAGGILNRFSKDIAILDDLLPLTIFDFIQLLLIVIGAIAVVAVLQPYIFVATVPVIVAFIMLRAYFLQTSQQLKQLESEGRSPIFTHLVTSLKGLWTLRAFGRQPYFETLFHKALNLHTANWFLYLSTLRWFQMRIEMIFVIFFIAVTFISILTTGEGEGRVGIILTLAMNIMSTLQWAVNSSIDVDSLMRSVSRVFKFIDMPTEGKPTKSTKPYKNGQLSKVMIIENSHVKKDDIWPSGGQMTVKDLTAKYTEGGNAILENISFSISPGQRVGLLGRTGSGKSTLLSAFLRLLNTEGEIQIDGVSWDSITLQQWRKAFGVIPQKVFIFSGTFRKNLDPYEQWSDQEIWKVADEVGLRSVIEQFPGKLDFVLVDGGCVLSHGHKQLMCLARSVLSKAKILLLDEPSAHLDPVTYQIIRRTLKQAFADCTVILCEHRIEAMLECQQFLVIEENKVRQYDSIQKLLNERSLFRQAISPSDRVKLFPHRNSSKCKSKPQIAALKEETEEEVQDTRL

EC50 [µM] | Emax [%] | % Efficacy | Compound
< 10 | 25 to 100 |  | CCCn1c(C(CC)N2CCN(S(=O)(=O)c3ccc(OC)cc3)CC2)nc2ccccc2c1=O (stereo not shown) [compound 342]
< 10 | > 100 |  | COc1ccc(S(=O)(=O)N2CCN(C(C)c3nc(OC(C)C)c4ccccc4n3)CC2)cc1 (stereo not shown) [compound 190]
< 10 | 25 to 100 |  | CCN(CC)c1nc(C(C)N2CCN(S(=O)(=O)c3ccc(Br)cc3)CC2)nc2ccccc12 (stereo not shown) [compound 222]
< 10 | 25 to 100 |  | COc1ccc(S(=O)(=O)N2CCN(C(C)c3nc(OC4CCC(C)CC4)c4ccccc4n3)CC2)cc1 (stereo not shown) [compound 399]
25 to 60 | 25 to 100 |  | COc1ccc(S(=O)(=O)N2CCN(C(C)c3nc(N4CCC(O)CC4)c4ccccc4n3)CC2)cc1 (stereo not shown) [compound 346]
< 10 | > 100 |  | CCCC(c1nc2ccccc2c(=O)n1C)N1CCN(S(=O)(=O)c2ccc(OC)cc2)CC1 (stereo not shown) [compound 340]
25 to 60 | 25 to 100 |  | COc1ccc(S(=O)(=O)N2CCCN(C(C)c3nc4ccccc4c(=O)n3C)CC2)cc1 (stereo not shown) [compound 170]
10 to 25 | 25 to 100 |  | COc1ccc(S(=O)(=O)N2CCN(C(C)c3nc(N4CCC5(CC4)OCCO5)c4ccccc4n3)CC2)cc1 (stereo not shown) [compound 323]
25 to 60 | 25 to 100 |  | COCCOc1nc(C(C)N2CCN(S(=O)(=O)c3ccc(OC)cc3)CC2)nc2ccccc12 (stereo not shown) [compound 295]
< 10 | > 100 |  | COc1ccc(S(=O)(=O)N2CCN(C(C)c3nc(N4CCC(C)CC4)c4ccccc4n3)CC2)cc1 (stereo not shown) [compound 320]
10 to 25 | 25 to 100 |  | CCCC(c1nc2ccccc2c(=O)[nH]1)N1CCN(S(=O)(=O)c2ccc(OC)cc2)CC1 (stereo not shown) [compound 335]
25 to 60 | > 100 |  | CC(c1nc(N(C)C)c2ccccc2n1)N1CCN(S(=O)(=O)c2ccc(Br)cc2)CC1 (stereo not shown) [compound 220]
10 to 25 |  | ++ (“++” means between 25% to 100%) | COc1ccc(S(=O)(=O)N2CCN(C(C)c3nc(OC4CCCC4)c4ccccc4n3)CC2)cc1 (stereo not shown) [compound 397]
25 to 60 | > 100 |  | COc1ccc(S(=O)(=O)N2CCN(C(C)c3nc(OC4CCOCC4)c4ccccc4n3)CC2)cc1 (stereo not shown) [compound 300]
25 to 60 | 25 to 100 |  | CC(c1ncc2ccccc2n1)N1CCN(S(=O)(=O)c2ccc(Br)cc2)CC1 (stereo not shown) [compound 313]
< 10 | > 100 |  | CCCn1c(C(C)N2CCN(S(=O)(=O)c3ccc(OC)cc3)CC2)nc2ccccc2c1=O (stereo not shown) [compound 22]
10 to 25 | 25 to 100 |  | COc1ccc(S(=O)(=O)N2CCN(C(C)c3nc(NC4CCCCC4)c4cc(F)ccc4n3)CC2)cc1 (stereo not shown) [compound 373]
10 to 25 | > 100 |  | CCCOc1nc(C(C)N2CCN(S(=O)(=O)c3ccc(OC)cc3)CC2)nc2ccccc12 (stereo not shown) [compound 189]
< 10 |  | +++ (“+++” means >100%) | COc1ccc(S(=O)(=O)N2CCN(C(C)c3nc(OC4CCCC4)c4ccccc4n3)CC2)cc1 (stereo not shown) [compound 191]
< 10 | > 100 |  | COc1ccc(S(=O)(=O)N2CCN(C(C)c3nc(OC4CCCC4)c4cc(F)ccc4n3)CC2)cc1 (stereo not shown) [compound 375]

Further lines, the compound ahead of its results:

Compound | EC50 [µM] | Emax [%] | % Efficacy
COc1ccc(S(=O)(=O)N2CCN(C(C)c3ncc(-c4ccccc4)c(N4CCCCC4)n3)CC2)cc1 (stereo not shown) [compound 376] | < 10 | 25 to 100 | 
COc1ccc(S(=O)(=O)N2CCN(C(C)c3nc4ccc(NC(C)=O)cc4c(=O)n3C)CC2)cc1 (stereo not shown) [compound 155] | < 10 | 25 to 100 | 
COc1ccc(S(=O)(=O)N2CCN(C(C)c3nc4ccc(Br)cc4c(=O)n3C)CC2)cc1 (stereo not shown) [compound 116] | < 10 | 25 to 100 | 
COc1ccc(S(=O)(=O)NCCNC(C)c2nc3ccccc3c(=O)n2C)cc1 (stereo not shown) [compound 167] | 25 to 60 | < 25 | 
Cc1cccc(S(=O)(=O)N2CCN(C(C)c3nc4ccccc4c(=O)n3C)CC2)c1 (stereo not shown) [compound 48] | 25 to 60 | 25 to 100 | 
CC(C)c1ccc(S(=O)(=O)N2CCN(C(C)c3nc4ccccc4c(=O)n3C)CC2)cc1 (stereo not shown) [compound 273] | 25 to 60 | < 25 | 
Cc1ccccc1C(=O)N1CCN(C(C)c2nc3ccccc3c(=O)n2C)CC1 (stereo not shown) [compound 32] | < 10 | < 25 | 
COc1ccc(S(=O)(=O)N2CCN(C(C)c3ncc(Br)c(=O)[nH]3)CC2)cc1 (stereo not shown) [compound 378] | 25 to 60 | < 25 | 
COc1ccc(S(=O)(=O)N2CCN(C(C)c3nc(N4CCC(C)CC4)c4cc(F)ccc4n3)CC2)cc1 (stereo not shown) [compound 372] | 10 to 25 | > 100 | 
CC(c1nc2ccccc2c(=O)n1C)N1CCN(S(=O)(=O)c2cccc3cnccc23)CC1 (stereo not shown) [compound 251] | 25 to 60 | < 25 | 
CC(c1nc2ccccc2c(=O)n1C)N1CCN(S(=O)(=O)c2cccc(C(F)(F)F)c2)CC1 (stereo not shown) [compound 7] | 10 to 25 | 25 to 100 | 
CC(c1nc2cc(Cl)ccc2c(=O)n1C)N1CCN(S(=O)(=O)c2ccc(OC(F)(F)F)cc2)CC1 (stereo not shown) [compound 99] | < 10 | 25 to 100 | 
CC(c1nc2cc(Cl)ccc2c(=O)n1C)N1CCN(S(=O)(=O)c2ccc(C(F)(F)F)cc2)CC1 (stereo not shown) [compound 98] | < 10 | 25 to 100 | 
Cc1noc(C)c1S(=O)(=O)N1CCN(C(C)c2nc3ccccc3c(=O)n2C)CC1 (stereo not shown) [compound 266] | 25 to 60 | < 25 | 
CC(c1nc2ccccc2c(=O)n1C)N1CCN(S(=O)(=O)c2c(Cl)nc3sccn23)CC1 (stereo not shown) [compound 268] | 25 to 60 | < 25 | 
CC(c1nc2ccccc2c(=O)n1C)N1CCC(NS(=O)(=O)c2ccc(Br)cc2)CC1 (stereo not shown) [compound 166] | < 10 | 25 to 100 | 
CC(c1nc2ccccc2c(=O)n1C)N1CCN(S(=O)(=O)c2ccc(-c3ccon3)s2)CC1 (stereo not shown) [compound 269] | 25 to 60 | < 25 | 
CC(c1nc2ccc(Br)cc2c(=O)n1C)N1CCN(S(=O)(=O)c2ccc(Cl)cc2)CC1 (stereo not shown) [compound 117] | 10 to 25 | 25 to 100 | 
CC(c1nc2ccccc2c(=O)n1C)N1CCN(S(=O)(=O)c2cccc3nsnc23)CC1 (stereo not shown) [compound 282] | 25 to 60 | < 25 | 
CC(c1nc2ccc(S(C)(=O)=O)cc2c(=O)n1C)N1CCN(S(=O)(=O)c2ccccc2)CC1 (stereo not shown) [compound 138] | 10 to 25 | < 25 | 
CC(NC[C@@H]1CCCCN1S(=O)(=O)c1ccc(Cl)cc1)c1nc2ccccc2c(=O)n1C (stereo partly shown) [compound 214] | 25 to 60 | < 25 | 

Compound | EC50 [µM] | Emax [%] | % Efficacy
CC(c1nc2ccccc2c(=O)n1C)N1CCN(S(=O)(=O)c2ccc(Br)cc2)CC1 (stereo not shown) [compound 51] | 10 to 25 | > 100 | 
CCCn1c(C(C)N2CCN(S(=O)(=O)c3ccc4ccccc4c3)CC2)nc2ccccc2c1=O (stereo not shown) [compound 47] | < 10 | 25 to 100 | 
CC(Nc1ccc(NS(=O)(=O)c2ccc(Cl)cc2)cc1)c1nc2ccccc2c(=O)n1C (stereo not shown) [compound 308] | < 10 | 25 to 100 | 
Cc1ccc(S(=O)(=O)N2CCN(C(C)c3nc4ccc(C#N)cc4c(=O)n3C)CC2)cc1 (stereo not shown) [compound 125] | 10 to 25 | 25 to 100 | 
CC(c1nc2ccccc2c(=O)n1C)N1CCN(S(=O)(=O)c2ccc(Cl)c(Cl)c2)CC1 (stereo not shown) [compound 241] | < 10 | > 100 | 
Cc1ccc(S(=O)(=O)N2CCN(C(C)c3nc4ccc(S(C)(=O)=O)cc4c(=O)n3C)CC2)cc1 (stereo not shown) [compound 139] | 10 to 25 | 25 to 100 | 
CC(c1nc2ccc(C#N)cc2c(=O)n1C)N1CCN(S(=O)(=O)c2ccc(Cl)cc2)CC1 (stereo not shown) [compound 126] | 10 to 25 | 25 to 100 | 
CCn1c(C(C)N2CCN(S(=O)(=O)c3cccc4ccccc34)CC2)nc2ccc(Cl)cc2c1=O (stereo not shown) [compound 35] | < 10 | 25 to 100 | 
CCCn1c(C(C)N2CCN(S(=O)(=O)c3ccc(Cl)c([N+](=O)[O-])c3)CC2)nc2ccccc2c1=O (stereo not shown) [compound 20] | 25 to 60 | < 25 | 
CC(c1nc2cccc(Cl)c2c(=O)n1C)N1CCN(S(=O)(=O)c2ccc(Cl)cc2)CC1 (stereo not shown) [compound 104] | 10 to 25 | < 25 | 
CC(c1nc2cc(Cl)ccc2c(=O)n1C)N1CCN(S(=O)(=O)c2ccc(Br)cc2)CC1 (stereo not shown) [compound 95] | < 10 | 25 to 100 | 
CC(c1nc2ccccc2c(=O)n1C)N1CCN(S(=O)(=O)c2cccc(F)c2)CC1 (stereo not shown) [compound 248] | 25 to 60 | < 25 | 
CCn1c(C(C)N2CCN(S(=O)(=O)c3ccc(Cl)c([N+](=O)[O-])c3)CC2)nc2ccc(Cl)cc2c1=O (stereo not shown) [compound 34] | 25 to 60 | < 25 | 
Cc1cccc(S(=O)(=O)N2CCN(C(C)c3nc4cc(Cl)ccc4c(=O)n3C)CC2)c1 (stereo not shown) [compound 96] | < 10 | 25 to 100 | 
COc1ccc(S(=O)(=O)N2CCN(C(C)c3nc4cc(Cl)ccc4c(=O)n3C)CC2)cc1OC (stereo not shown) [compound 100] | 10 to 25 | 25 to 100 | 
CC(c1nc2ccccc2c(=O)n1C)N1CCN(C(=O)c2cccc(Cl)c2)CC1 (stereo not shown) [compound 75] | 25 to 60 | < 25 | 
CC(c1nc2cc(Cl)ccc2c(=O)n1C)N1CCN(S(=O)(=O)c2ccc(Cl)cc2)CC1 (stereo not shown) [compound 94] | < 10 | 25 to 100 | 
CC(c1nc2ccccc2c(=O)n1C)N(CCNS(=O)(=O)c1ccc(Cl)cc1)S(=O)(=O)c1ccc(Cl)cc1 (stereo not shown) [compound 198] | 25 to 60 | < 25 | 
CC(c1nc2ccccc2c(=O)n1C)N1CCN(C(=O)c2ccccc2Cl)CC1 (stereo not shown) [compound 82] | 25 to 60 | < 25 | 
COc1ccc(S(=O)(=O)N2CCN(C(C)c3nc4cc(OC)c(OC)cc4c(=O)n3C)CC2)cc1 (stereo not shown) [compound 285] | 25 to 60 | 25 to 100 | 
COc1ccc(S(=O)(=O)N2CCN(C(C)c3ncc(Br)c(OC4CCCC4)n3)CC2)cc1 (stereo not shown) [compound 381] | < 10 | > 100 | 
